Measured values reported in patent publication US10633348B2, “Methods to treat lymphoplasmacytic lymphoma” (Dana-Farber Cancer Institute, Inc., priority 2013, dated 2020).

Assays:
Assay type in all cases: cell-based
[1] = system: MER, TYRO3; assay: KiNativ kinase profiling in A375 cells; conditions: Activation Loop, SEQ ID NO 102, 1.0 μM
[2] = system: AMPKa1, AMPKa2; assay: KiNativ kinase profiling in A375 cells; conditions: Lys2, SEQ ID NO 4, 1.0 μM
[3] = system: MAP2K4
[4] = system: LKB1
[5] = system: CASK
[6] = system: Wnk1, Wnk2, Wnk3; assay: KiNativ kinase profiling in A375 cells; conditions: Lys2, SEQ ID NO 194, 1.0 μM
[7] = system: FYN; assay: KiNativ kinase profiling in A375 cells
[8] = system: TYK2 domain2
[9] = system: JAK1
[10] = system: Abl; assay: KiNativ kinase profiling in A375 cells
[11] = system: PIK3CD
[12] = system: PI4KB
[13] = system: Ramos; assay: CellTiter-Glo cell viability assay; conditions: Homo sapiens, 72 h
Description: (§1) CellTiter-Glo® Luminescent cell viability assay (Promega) was used to assess cell survival following treatment with the compounds described. Cells were seeded into 384 well plates with the EL406 Combination Washer Dispenser (BioTek Instruments, Inc.) and the compounds were injected into the cells culture media with the JANUS Automated Workstation (PerkinElmer Inc.). Cells were treated with a series diluted inhibitors (20˜0.04 μM) for 72 hours at 37° C. Luminescent measurement is performed using the 2104 Envision® Multilabel Reader (PerkinElmer Inc.).

[14] = system: MWCL-1; assay: CellTiter-Glo cell viability assay; conditions: 72 h
Description: as §1

[15] = system: BCWM.1; assay: CellTiter-Glo cell viability assay; conditions: BCWM1, 72 h
Description: as §1

[16] = system: OCI-Ly19; assay: CellTiter-Glo cell viability assay; conditions: Homo sapiens, OCI-LY19, 72 h
Description: as §1

[17] = system: RSK4 domain1
[18] = system: MET
[19] = system: MLKL
[20] = system: MST3
[21] = system: VRK2
[22] = system: MAP3K2, MAP3K3; assay: KiNativ kinase profiling in A375 cells; conditions: Lys2, SEQ ID NO 87, 1.0 μM
[23] = system: ZAK
[24] = system: IRE1
[25] = system: TAO2
[26] = system: LYN
[27] = system: JAK1 domain2
[28] = system: MYO3A, MYO3B; assay: KiNativ kinase profiling in A375 cells; conditions: Lys2, SEQ ID NO 115, 1.0 μM
[29] = system: ERK1
[30] = system: RSK1 domain1, RSK2 domain1, RSK3 domain1; assay: KiNativ kinase profiling in A375 cells; conditions: Lys2, SEQ ID NO 165, 1.0 μM
[31] = system: IKKb
[32] = system: PRP4
[33] = system: WM patient primary lymphoplasmacytic cells (LPCs); assay: Apoptosis analysis (Annexin V/Propidium iodide); conditions: for Apoptosis (%): 24 hours
Description: WM cells were treated with and without the compounds described herein. Cells were incubated at 37° C. with 0.01˜4 uM of the compounds described herein. Apoptosis analysis was performed using Annexin V/Propidium iodide staining with the Apoptosis Detection Kit I (BD Pharmingen). 1×10^6/well cells were treated in 24 well plates for ˜24 hours with inhibitors or corresponding controls. A minimum of 10,000 events were acquired using a BD™ FACSCanto II flow cytometer and analyzed with BD FACS DIVA Software.
Apoptosis analysis of WM patient primary lymphoplasmacytic cells (LPCs) was preformed following A-5 and A-14 treatment of Bone marrow mononuclear cells (BMMC) from WM patients for 24 hours. Apoptosis analysis was performed using Annexin V/Propidium iodide staining with the Apoptosis Detection Kit I (BD Pharmingen) in CD19-APC-cy7 antibody (BD Pharmingen) gated LPCs population.

Structure (SMILES): CCN1CCN(Cc2ccc(NC(=O)c3ccc(C)c(Oc4cc(N)ncn4)c3)cc2C(F)(F)F)CC1 [(A-4), 3-((6-aminopyrimidin-4-yl)oxy)-N-(4-((4-ethylpiperazin-1-yl)methyl)-3-(trifluoromethyl)phenyl)-4-methylbenzamide]
- inhibition of kinase labeling [1]: 1.6%
- inhibition of kinase labeling [2]: 16.3%
- inhibition of kinase labeling [3]: −14.1%
- inhibition of kinase labeling [4]: −6.0%
- inhibition of kinase labeling [5]: −28.1%
- inhibition of kinase labeling [6]: 0.2%
- inhibition of kinase labeling ([7]; FYN, SRC, YES, Activation Loop, SEQ ID NO 50, 1.0 μM, A375 cells): 71.2%
- inhibition of kinase labeling [8]: −18.1%
- inhibition of kinase labeling [9]: 4.3%
- inhibition of kinase labeling ([10]; ABL, ARG, Activation Loop, SEQ ID NO 1, 1.0 μM, A375 cells): 95.5%
- inhibition of kinase labeling [11]: 2.2%
- inhibition of kinase labeling [12]: −0.2%
- EC50 [13]: 21100 nM
- EC50 [14]: 1150 nM
- EC50 [15]: 3010 nM
- EC50 [16]: 9430 nM
- inhibition of kinase labeling [17]: 27.6%
- inhibition of kinase labeling [18]: −21.0%
- inhibition of kinase labeling [19]: −14.9%
- inhibition of kinase labeling [20]: −3.7%
- inhibition of kinase labeling [21]: 27.9%
- inhibition of kinase labeling [22]: 3.2%
- inhibition of kinase labeling [23]: 75.7%
- inhibition of kinase labeling [24]: −2.2%
- inhibition of kinase labeling [25]: 86.0%
- inhibition of kinase labeling [26]: 87.8%
- inhibition of kinase labeling [27]: −6.2%
- inhibition of kinase labeling [28]: −15.3%
- inhibition of kinase labeling [29]: −9.0%
- inhibition of kinase labeling [30]: −17.7%
- inhibition of kinase labeling [31]: −12.6%
- inhibition of kinase labeling [32]: −20.1%

Structure (SMILES): CCN1CCN(Cc2ccc(NC(=O)c3ccc(C)c(Oc4ccnc(Nc5cnn(C)c5)n4)c3)cc2C(F)(F)F)CC1 [(A-14), N-(4-((4-ethylpiperazin-1-yl)methyl)-3-(trifluoromethyl)phenyl)-4-methyl-3-((2-((1-methyl-1H-pyrazol-4-yl)amino)pyrimidin-4-yl)oxy)benzamide]
- FYN inhibition ([7]; 1 μM, A375 cells): 88.2%
- KiNativ inhibition ([7]; FYN, SRC, YES, Activation Loop, SEQ ID NO 255, 1.0 μM): 88.2%
- Apoptosis (%) ([33]; Patient 5, 0.5 μM): 39.24%
- Apoptosis (%) ([33]; Patient 5, 1.0 μM): 46.86%
- Apoptosis (%) ([33]; Patient 6, 1.0 μM): 20.88%
- Apoptosis (%) ([33]; Patient 7, 0.5 μM): 22.62%
- Apoptosis (%) ([33]; Patient 7, 1.0 μM): 31.51%
- Apoptosis (%) ([33]; Patient 8, 0.5 μM): 12.9%
- Apoptosis (%) ([33]; Patient 8, 1.0 μM): 31.58%
- Apoptosis (%) ([33]; Patient 9, 0.2 μM): 24.8%
- Apoptosis (%) ([33]; Patient 9, 1.0 μM): 43.7%
- Apoptosis (%) ([33]; Patient 10, 0.2 μM): 27.9%
- Apoptosis (%) ([33]; Patient 10, 1.0 μM): 52%
- Apoptosis (%) ([33]; Patient 11, 0.2 μM): 53.1%
- Apoptosis (%) ([33]; Patient 11, 1.0 μM): 71.8%
- apoptosis compared with DMSO control ([33]; WM patient primary LPCs): induced significant apoptosis
- Abl inhibition ([10]; 1 μM, A375 cells): > 90%
- KiNativ inhibition ([10]; ABL, ARG, Activation Loop, SEQ ID NO 200, 1.0 μM): 98.4%
- EC50 [13]: 2090 nM
- EC50 [14]: 128 nM
- EC50 [15]: 33 nM
- EC50 [16]: 179 nM
- KiNativ inhibition [23]: 75.8%
- ZAK inhibition [23]: 75.8%
- KiNativ inhibition [26]: 85.7%
- LYN inhibition [26]: 85.7%
